These results are taken from patent US20260325540A1 (priority 2023, published 2026).

Experiment [1] concerns the target MERS-CoV 3CLpro (Middle East respiratory syndrome-related coronavirus, UniProt K9N638). The experiment can be described thus: biochemical. The note with it: MERS IC50, 75 nM MERS-CoV 3CLpro, 6 μM peptide 1 substrate, 25° C., 1.5 hrs, pH 7.5.
The target of experiment [2] is SARS-CoV-2 3CLpro (Severe acute respiratory syndrome coronavirus 2, UniProt P0DTD1). Briefly: FRET based protease assay, SARS-CoV-2 3CL. In kind it is biochemical, SARS-CoV-2 (strain BetaCoV/Wuhan/WIV04/2019).

Chain of MERS-CoV 3CLpro (K9N638 3248-3553 limits assumed): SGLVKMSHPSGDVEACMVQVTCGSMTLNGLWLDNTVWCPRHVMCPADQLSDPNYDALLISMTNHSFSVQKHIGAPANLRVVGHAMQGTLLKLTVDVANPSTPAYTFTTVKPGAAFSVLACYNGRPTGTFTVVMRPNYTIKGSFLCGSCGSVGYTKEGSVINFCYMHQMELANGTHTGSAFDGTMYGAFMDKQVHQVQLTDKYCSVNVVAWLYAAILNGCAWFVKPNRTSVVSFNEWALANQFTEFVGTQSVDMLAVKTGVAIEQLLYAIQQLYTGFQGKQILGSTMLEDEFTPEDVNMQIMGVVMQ

A word on the IC50: it is the concentration that gives 50% inhibition. Low values mean inhibition by little substance, high ones a need for much substance. Take `CC(C)C[C@@H]1NC(=O)CCCC[C@@H]2CNC(=O)[C@@H]2C[C@@H](C=O)NC1=O` [Example 1]: the IC50 is above 20000 nM in experiment [1] and 1000 to 20000 nM in experiment [2]. For the compound `CC(C)C[C@@H]1NC(=O)CCCC[C@H]2CNC(=O)[C@H]2C[C@@H](C=O)NC1=O` [Example 2], the IC50 is above 20000 nM in experiment [1] and 1000 to 20000 nM in experiment [2]. Regarding `CC(C)C[C@@H]1NC(=O)CCCC[C@H]2CNC(=O)[C@@H]2C[C@@H](C=O)NC1=O` [Example 4], the figures for the half-maximal inhibitory concentration (IC50) in experiment [1] and in experiment [2] were 100 to 1000 nM and below 100 nM, respectively.

Turning to `CC(C)C[C@@H]1NC(=O)[C@@H](Cc2ccccc2)CCC[C@@H]2CNC(=O)[C@@H]2C[C@@H](C=O)NC1=O` [Example 9], the IC50 was in the range of 1000 to 20000 nM in experiment [1] and 100 to 1000 nM in experiment [2].

With `CC(C)C[C@@H]1NC(=O)[C@@H](Cc2ccccc2)CCC[C@H]2CNC(=O)[C@@H]2C[C@@H](C=O)NC1=O` [Example 10], the IC50 in experiment [1] fell in the range of 1000 to 20000 nM. Turning to `CC(C)C[C@@H]1NC(=O)[C@H](Cc2ccccc2)CCC[C@@H]2CNC(=O)[C@@H]2C[C@@H](C=O)NC1=O` [Example 11], the IC50 in experiment [1] and in experiment [2] was 1000 to 20000 nM in each case. As for `CC(C)C[C@@H]1NC(=O)[C@H](Cc2ccccc2)CCC[C@H]2CNC(=O)[C@H]2C[C@@H](C=O)NC1=O` [Example 12], the half-maximal inhibitory concentration (IC50) lay within 1000 to 20000 nM in experiment [1] and 100 to 1000 nM in experiment [2]. The matching figures for `CC(C)C[C@@H]1NC(=O)[C@@H](C2CCCC2)CCC[C@H]2CNC(=O)[C@H]2C[C@@H](C=O)NC1=O` [Example 13]: 1000 to 20000 nM and 1000 to 20000 nM. For `CC(C)C[C@@H]1NC(=O)[C@@H](C2CCCC2)CCC[C@@H]2CNC(=O)[C@@H]2C[C@@H](C=O)NC1=O` [Example 14], the IC50 in experiment [1] was in the range of 1000 to 20000 nM; in experiment [2], 100 to 1000 nM. The matching figures for `CC(C)C[C@@H]1NC(=O)[C@@H](NC(=O)OC(C)(C)C)CCC[C@H]2CNC(=O)[C@H]2C[C@@H](C=O)NC1=O` [Example 15]: 100 to 1000 nM and 100 to 1000 nM. The matching figures for `CC(C)C[C@@H]1NC(=O)[C@@H](NC(=O)OC(C)(C)C)CCC[C@@H]2CNC(=O)[C@@H]2C[C@@H](C=O)NC1=O` [Example 16]: 1000 to 20000 nM and 100 to 1000 nM. As for `CC(C)C[C@@H]1NC(=O)[C@@H](Cc2ccccc2)CCC[C@H]2CNC(=O)[C@@H]2C[C@@H](C=O)NC1=O` [Example 17], the IC50 in experiment [1] and in experiment [2] was 100 to 1000 nM in each case. As for `CC(C)C[C@@H]1NC(=O)[C@@H](CC2CCCC2)CCC[C@H]2CNC(=O)[C@@H]2C[C@@H](C=O)NC1=O` [Example 18], the IC50 in experiment [1] and in experiment [2] was 100 to 1000 nM each time. Consider `CC(C)C[C@@H]1NC(=O)[C@@H](NC(=O)OC(C)(C)C)CCC[C@H]2CNC(=O)[C@@H]2C[C@@H](C=O)NC1=O` [Example 19], for which the IC50 in experiment [1] is 100 to 1000 nM; in experiment [2] it was below 100 nM. As for `CC(C)C[C@@H]1NC(=O)[C@@H](OC(C)(C)C)CCC[C@H]2CNC(=O)[C@@H]2C[C@@H](C=O)NC1=O` [Example 20], the half-inhibitory concentration (IC50) in experiment [1] is above 20000 nM; in experiment [2], 1000 to 20000 nM.

Regarding `CC(C)C[C@@H]1NC(=O)[C@H](Cc2ccccc2)CCC[C@H]2CNC(=O)[C@@H]2C[C@@H](C=O)NC1=O` [Example 21], the IC50 is 100 to 1000 nM in experiment [1] and below 100 nM in experiment [2]. Take `CC(C)C[C@@H]1NC(=O)[C@@H](N(C)C(=O)OC(C)(C)C)CCC[C@H]2CNC(=O)[C@@H]2C[C@@H](C#N)NC1=O` [Example 22]: the 50% inhibitory concentration (IC50) in experiment [1] and in experiment [2] was above 20000 nM in each case. On to `CC(C)C[C@@H]1NC(=O)C(OC2CCCCC2)CCC[C@H]2CNC(=O)[C@@H]2C[C@@H](C#N)NC1=O` (stereo partly shown) [Example 23], for which the half-inhibitory concentration (IC50) in experiment [1] and in experiment [2] was above 20000 nM throughout. On to `CC(C)C[C@@H]1NC(=O)CCCC[C@H]2CNC(=O)[C@@H]2C[C@@H](C#N)NC1=O` [Example 24], for which the 50% inhibitory concentration (IC50) in experiment [1] and in experiment [2] was 1000 to 20000 nM each time.

`CC1(C)[C@@H]2[C@H]3C(=O)N[C@H](C#N)C[C@H]4C(=O)NC[C@@H]4CCCCC(=O)N3C[C@@H]21` [Example 25]: the IC50 in experiment [1] and in experiment [2] was 1000 to 20000 nM throughout. As to `N#C[C@@H]1C[C@H]2C(=O)NC[C@@H]2CCCCC(=O)N2C[C@@H]3CCC[C@@H]3[C@H]2C(=O)N1` [Example 26], the half-inhibitory concentration (IC50) in experiment [1] and in experiment [2] was above 20000 nM throughout. For `CC(C)C[C@@H]1NC(=O)[C@@H](Cc2ccccc2)CCC[C@H]2CNC(=O)[C@@H]2C[C@@H](C#N)NC1=O` [Example 27], the IC50 in experiment [1] and in experiment [2] was 1000 to 20000 nM throughout. In the case of `CC(C)C[C@@H]1NC(=O)[C@@H](C2CCCC2)CCC[C@H]2CNC(=O)[C@@H]2C[C@@H](C#N)NC1=O` [Example 28], the concentration for half-maximal inhibition (IC50) in experiment [1] and in experiment [2] was 1000 to 20000 nM throughout. For `CC(C)C[C@@H]1NC(=O)[C@@H](OC(C)(C)C)CCC[C@H]2CNC(=O)[C@@H]2C[C@@H](C#N)NC1=O` [Example 29], the IC50 in experiment [1] and in experiment [2] was above 20000 nM throughout. Turning to `CC(C)C[C@@H]1NC(=O)CCCCC[C@H]2CNC(=O)[C@H]2C[C@@H](C=O)NC1=O` [Example 30], the 50% inhibitory concentration (IC50) was in the range of 1000 to 20000 nM in experiment [1] and 100 to 1000 nM in experiment [2]. With `CC(C)C[C@@H]1NC(=O)CCCCC[C@@H]2CNC(=O)[C@H]2C[C@@H](C=O)NC1=O` [Example 31], the IC50 in experiment [1] and in experiment [2] was above 20000 nM in each case.

As to `CC(C)C[C@@H]1NC(=O)CCCCC[C@H]2CNC(=O)[C@@H]2C[C@@H](C=O)NC1=O` [Example 32], the IC50 in experiment [1] and in experiment [2] was 100 to 1000 nM each time. As for `CC(C)C[C@@H]1NC(=O)CCCCC[C@@H]2CCNC(=O)[C@H]2C[C@@H](C=O)NC1=O` [Example 33], the half-inhibitory concentration (IC50) in experiment [1] and in experiment [2] was above 20000 nM throughout.

On to `CC(C)C[C@@H]1NC(=O)CCCCC[C@H]2CCNC(=O)[C@@H]2C[C@@H](C=O)NC1=O` [Example 34], for which the IC50 in experiment [1] fell in the range of 1000 to 20000 nM; in experiment [2], 100 to 1000 nM. Turning to `CC(C)C[C@@H]1NC(=O)[C@@H](Cc2ccccc2)CCCC[C@@H]2CNC(=O)[C@@H]2C[C@@H](C=O)NC1=O` [Example 35], the IC50 in experiment [2] is 1000 to 20000 nM. As for `CC(C)C[C@@H]1NC(=O)[C@@H](Cc2ccccc2)CCCC[C@H]2CNC(=O)[C@H]2C[C@@H](C=O)NC1=O` [Example 36], the IC50 in experiment [1] is 100 to 1000 nM; in experiment [2], below 100 nM. As for `CC(C)C[C@@H]1NC(=O)[C@@H](Cc2ccccc2)CCCC[C@H]2CNC(=O)[C@@H]2C[C@@H](C=O)NC1=O` [Example 37], the half-inhibitory concentration (IC50) in experiment [1] was 100 to 1000 nM; in experiment [2], below 100 nM. In the case of `CC(C)C[C@@H]1NC(=O)CCCCC[C@H]2CNC(=O)[C@H]2C[C@@H](C#N)NC1=O` [Example 38], the IC50 is above 20000 nM in experiment [1] and 1000 to 20000 nM in experiment [2]. In the case of `CC(C)C[C@@H]1NC(=O)[C@@H](Cc2ccccc2)CCCC[C@H]2CNC(=O)[C@H]2C[C@@H](C#N)NC1=O` [Example 39], the figures for the IC50 in experiment [1] and in experiment [2] were 1000 to 20000 nM and 100 to 1000 nM, respectively.

For the compound `CC(C)C[C@@H]1NC(=O)[C@@H](Cc2cccc(C(F)(F)F)c2)CCCC[C@H]2CNC(=O)[C@H]2C[C@@H](C#N)NC1=O` [Example 40], the half-maximal inhibitory concentration (IC50) in experiment [1] and in experiment [2] was 1000 to 20000 nM throughout. Regarding `CC(C)C[C@@H]1NC(=O)[C@@H](C2CCCC2)CCCC[C@H]2CNC(=O)[C@H]2C[C@@H](C#N)NC1=O` [Example 41], the IC50 in experiment [2] is above 20000 nM.

For the compound `CC(C)C[C@@H]1NC(=O)[C@@H](Cc2ccc(F)cc2)CCCC[C@@H]2CNC(=O)[C@@H]2C[C@@H](C#N)NC1=O` [Example 42], the IC50 in experiment [1] and in experiment [2] was 1000 to 20000 nM each time. Consider `CC(C)C[C@@H]1NC(=O)[C@@H](Cc2ccc(F)cc2)CCCC[C@H]2CNC(=O)[C@H]2C[C@@H](C#N)NC1=O` [Example 43], for which the IC50 in experiment [1] and in experiment [2] was 1000 to 20000 nM in each case. On to `CC(C)C[C@@H]1NC(=O)[C@@H](NC(=O)C(C)(C)C)CCCC[C@H]2CNC(=O)[C@H]2C[C@@H](C#N)NC1=O` [Example 44], for which the figures for the IC50 in experiment [1] and in experiment [2] were 100 to 1000 nM and below 100 nM, respectively.

For `CC(C)C[C@@H]1NC(=O)CCCCCC[C@H]2CNC(=O)[C@H]2C[C@@H](C=O)NC1=O` [Example 45], the concentration for half-maximal inhibition (IC50) in experiment [1] fell in the range of 1000 to 20000 nM; in experiment [2] it was 100 to 1000 nM. For the compound `CC(C)C[C@@H]1NC(=O)CCCCCC[C@@H]2CNC(=O)[C@@H]2C[C@@H](C=O)NC1=O` [Example 46], the 50% inhibitory concentration (IC50) in experiment [1] and in experiment [2] was 1000 to 20000 nM in each case. As to `CC(C)C[C@@H]1NC(=O)CCCCCC[C@@H]2CNC(=O)[C@H]2C[C@@H](C=O)NC1=O` [Example 47], the IC50 is above 20000 nM in experiment [1] and 1000 to 20000 nM in experiment [2]. For `CC(C)C[C@@H]1NC(=O)CCCCCC[C@H]2CNC(=O)[C@@H]2C[C@@H](C=O)NC1=O` [Example 48] the same measures were 100 to 1000 nM and 100 to 1000 nM. Take `CC(C)C[C@@H]1NC(=O)[C@@H](Cc2ccccc2)CCCCC[C@@H]2CNC(=O)[C@@H]2C[C@@H](C#N)NC1=O` [Example 49]: the 50% inhibitory concentration (IC50) in experiment [1] and in experiment [2] was above 20000 nM throughout. With `CC(C)C[C@@H]1NC(=O)[C@@H](Cc2ccccc2)CCCCC[C@H]2CNC(=O)[C@H]2C[C@@H](C#N)NC1=O` [Example 50], the IC50 in experiment [1] and in experiment [2] was 1000 to 20000 nM each time. As to `CC(C)C[C@@H]1NC(=O)CCCCCC[C@@H]2CNCC(=O)[C@H]2C[C@@H](C=O)NC1=O` [Example 51], the concentration for half-maximal inhibition (IC50) is above 20000 nM in experiment [1] and 1000 to 20000 nM in experiment [2].

On to `CC(C)C[C@@H]1NC(=O)CCCCCC[C@H]2CNCC(=O)[C@@H]2C[C@@H](C=O)NC1=O` [Example 52], for which the figures for the concentration for half-maximal inhibition (IC50) in experiment [1] and in experiment [2] were 1000 to 20000 nM and 100 to 1000 nM, respectively. The matching figures for `CC(C)(C)C[C@@H]1NC(=O)[C@@H](NC(=O)C(C)(C)C)CCCC[C@H]2CNC(=O)[C@H]2C[C@@H](C#N)NC1=O` [Example 53]: 100 to 1000 nM and below 100 nM. In turn, `CC(C)(C)OC(=O)N[C@H]1CCCC[C@H]2CCNC(=O)[C@H]2C[C@@H](C#N)NC(=O)[C@@H]2[C@@H]3[C@H](CN2C1=O)C3(C)C` [Example 96] showed an IC50 in experiment [1] below 100 nM.
